Experimental data: ChEMBL document CHEMBL3232866, “Design of novel potent antihyperlipidemic agents with antioxidant/anti-inflammatory properties: exploiting phenothiazine's strong antioxidant activity” (J Med Chem, 2014)
Activity calls are given as the source filed them. The calls are words filed in the database; no cut-off is given here.

Tests used:
[1] = test system: Radical scavenging activity; test: Antioxidant activity assessed as DPPH radical scavenging activity after 30 mins; type: functional
Rattus norvegicus [2] = test: In vivo antidyslipidemic activity against Triton WR 1339-induced hyperlipidemic Wistar rat model assessed as decrease in total cholesterol level in plasma at 56 umol/kg, ip administered as single dose 1 hr after Triton WR 1339 challenge measured after 24 hrs; type: functional
Rattus norvegicus [3] = test: In vivo antidyslipidemic activity against Triton WR 1339-induced hyperlipidemic Wistar rat model assessed as decrease in LDL-cholesterol level in plasma at 56 umol/kg, ip administered as single dose 1 hr after Triton WR 1339 challenge measured after 24 hrs; type: functional
Rattus norvegicus [4] = test: In vivo antidyslipidemic activity against Triton WR 1339-induced hyperlipidemic Wistar rat model assessed as decrease in triglyceride level in plasma at 56 umol/kg, ip administered as single dose 1 hr after Triton WR 1339 challenge measured after 24 hrs; type: functional
[5] = Antioxidant activity in rat liver microsome membrane assessed as inhibition of lipid peroxidation after 45 mins by TBARS-based spectrophotometric assay; type: functional, microsomes
[6] = biological target: T1, Squalene synthase (Rattus norvegicus) (UniProt Q02769); test: (§1) Inhibition of squalene synthase in rat liver microsomes assessed as decrease in conversion of [3H]FPP to squalene
T1 sequence (whole entry): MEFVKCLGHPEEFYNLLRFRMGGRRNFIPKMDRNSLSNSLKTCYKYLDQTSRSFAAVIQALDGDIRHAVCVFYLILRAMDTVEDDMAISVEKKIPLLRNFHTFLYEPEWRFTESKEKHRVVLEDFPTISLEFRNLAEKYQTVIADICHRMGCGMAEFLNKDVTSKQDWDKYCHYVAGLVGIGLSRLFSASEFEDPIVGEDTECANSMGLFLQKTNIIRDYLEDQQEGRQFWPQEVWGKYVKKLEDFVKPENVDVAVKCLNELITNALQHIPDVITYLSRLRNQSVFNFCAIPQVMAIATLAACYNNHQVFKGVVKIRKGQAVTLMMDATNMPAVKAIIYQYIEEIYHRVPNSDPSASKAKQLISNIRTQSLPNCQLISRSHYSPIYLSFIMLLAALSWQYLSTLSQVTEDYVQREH

Squalene synthase = biological target: T2, Squalene synthase (Rattus norvegicus, UniProt Q02769); test: as §1
T2 sequence (Q02769 whole entry): T1 sequence (whole entry)

Glycine max = test: Inhibition of soybean lipoxygenase using sodium linoleate as substrate up to 100 uM measured for 6 mins
[7] = biological target: T3, Prostaglandin G/H synthase 1 (Bos taurus) (UniProt O62664); test: Inhibition of bovine COX-1 assessed as PGF2-alpha formation using arachidonic acid as substrate at 20 uM by enzyme immunoassay
T3 sequence (whole entry): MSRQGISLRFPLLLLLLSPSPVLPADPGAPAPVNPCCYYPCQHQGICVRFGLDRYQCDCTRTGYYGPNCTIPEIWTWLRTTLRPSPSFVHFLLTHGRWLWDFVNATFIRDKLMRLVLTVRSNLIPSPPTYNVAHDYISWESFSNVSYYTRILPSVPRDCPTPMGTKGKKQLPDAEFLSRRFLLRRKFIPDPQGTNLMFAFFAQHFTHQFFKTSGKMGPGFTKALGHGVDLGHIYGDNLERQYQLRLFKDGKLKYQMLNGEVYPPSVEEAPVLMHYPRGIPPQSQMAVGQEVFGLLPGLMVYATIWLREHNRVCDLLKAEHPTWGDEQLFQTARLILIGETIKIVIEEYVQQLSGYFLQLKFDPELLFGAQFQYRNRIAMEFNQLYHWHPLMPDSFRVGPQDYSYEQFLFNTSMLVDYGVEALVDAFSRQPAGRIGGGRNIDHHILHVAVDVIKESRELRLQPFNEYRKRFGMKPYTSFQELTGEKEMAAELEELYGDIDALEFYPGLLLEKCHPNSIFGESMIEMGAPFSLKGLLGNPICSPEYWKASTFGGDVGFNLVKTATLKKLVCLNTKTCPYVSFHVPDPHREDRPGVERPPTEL

[8] = test system: Radical scavenging activity; test: Antioxidant activity assessed as DPPH radical scavenging activity up to 50 uM measured within 15 mins; type: functional
Mus musculus = test: In vivo antiinflammatory activity in mouse assessed as decrease in carrageenan-induced paw edema at 0.30 mmol/kg, ip administered immediately after carrageenan injection measured after 3.5 hrs; type: functional
[9] = Inhibition of soybean lipoxygenase using sodium linoleate as substrate measured for 6 mins
Homo sapiens [10] = species on record: Homo sapiens; test: Antioxidant activity against CuSO4-induced human LDL oxidation assessed as delta-lag time at 0.50 uM by spectrophotometric analysis; type: functional
Homo sapiens [11] = species on record: Homo sapiens; test: Antioxidant activity against CuSO4-induced human LDL oxidation assessed as lag time at 0.50 uM by spectrophotometric analysis (reference value: 113 mins); type: functional
Homo sapiens [12] = species on record: Homo sapiens; test: Antioxidant activity against CuSO4-induced human LDL oxidation assessed as increase in lag time at 1 uM by spectrophotometric analysis; type: functional
Homo sapiens [13] = species on record: Homo sapiens; test: Antioxidant activity against CuSO4-induced human LDL oxidation assessed as increase in lag time at 0.50 uM by spectrophotometric analysis; type: functional
Homo sapiens [14] = species on record: Homo sapiens; test: Antioxidant activity against CuSO4-induced human LDL oxidation assessed as inhibition of rate of conjugate diene formation at 1 uM by spectrophotometric analysis; type: functional
Homo sapiens [15] = species on record: Homo sapiens; test: Antioxidant activity against CuSO4-induced human LDL oxidation assessed as inhibition of rate of conjugate diene formation at 0.25 uM by spectrophotometric analysis; type: functional
Homo sapiens [16] = species on record: Homo sapiens; test: Antioxidant activity against CuSO4-induced human LDL oxidation assessed as delta-lag time at 0.25 uM by spectrophotometric analysis; type: functional
Homo sapiens [17] = species on record: Homo sapiens; test: Antioxidant activity against CuSO4-induced human LDL oxidation assessed as prolongation of lag time by spectrophotometric analysis; type: functional
Homo sapiens [18] = species on record: Homo sapiens; test: Antioxidant activity against CuSO4-induced human LDL oxidation assessed as inhibition of rate of conjugate diene formation at 0.50 uM by spectrophotometric analysis; type: functional
Homo sapiens [19] = species on record: Homo sapiens; test: Antioxidant activity against CuSO4-induced human LDL oxidation assessed as increase in lag time at 0.25 uM by spectrophotometric analysis; type: functional
Homo sapiens [20] = species on record: Homo sapiens; test: Antioxidant activity against CuSO4-induced human LDL oxidation assessed as lag time at 0.25 uM by spectrophotometric analysis (reference value: 113 mins); type: functional

Structure (SMILES): CN1CC(O)(c2ccc(-c3ccccc3)cc2)OC2CCCCC21 (configuration not stated)
- IC50 [1]: > 400 µM
- inhibition in vivo at 56 µmol/kg (Rattus norvegicus [2]): 54%
- inhibition in vivo at 56 µmol/kg (Rattus norvegicus [3]): 51%
- inhibition in vivo at 56 µmol/kg (Rattus norvegicus [4]): 49%
- IC50 [5]: 450 µM

Structure (SMILES): CCC(C)(C)C(=O)O[C@H]1C[C@@H](C)C=C2C=C[C@H](C)[C@H](CC[C@@H]3C[C@@H](O)CC(=O)O3)[C@H]21 [SIMVASTATIN]
- inhibition in vivo at 56 µmol/kg (Rattus norvegicus [2]): 75%
- inhibition in vivo at 56 µmol/kg (Rattus norvegicus [3]): 70%
- inhibition in vivo at 56 µmol/kg (Rattus norvegicus [4]): 0%

Structure (SMILES): CC(=O)N1c2ccccc2Sc2ccc(C3(O)CN(C)C4CCCCC4O3)cc21 (racemic)
- inhibition [6]: Dose-dependent effect
- IC50 (Squalene synthase): 1.6 µM
- IC50 [1]: > 400 µM
- inhibition (Glycine max): inactive
- IC50 [5]: 14 µM

Structure (SMILES): CN1CCOC(O)(c2ccc3c(c2)N(C)c2ccccc2S3)C1 (racemic)
- inhibition [6]: Dose-dependent effect
- IC50 (Squalene synthase): 3.6 µM
- IC50 [1]: > 400 µM
- inhibition [7]: 17%
- inhibition (Glycine max): inactive
- IC50 [5]: 70.2 µM

Structure (SMILES): CC(=O)N1c2ccccc2Sc2ccc(C3(O)CN4CCCCC4CO3)cc21 (racemic)
- inhibition [6]: Dose-dependent effect
- IC50 (Squalene synthase): 16.4 µM
- IC50 [1]: > 400 µM
- inhibition (Glycine max): inactive
- IC50 [5]: 12 µM

Structure (SMILES): CC1=CSC(O)(c2ccc3c(c2)Nc2ccccc2S3)CN1C=O (configuration not stated)
- IC50 (Squalene synthase): > 50 µM
- IC50 [1]: 150 µM
- Activity [8]: Active
- IC50 [5]: 0.33 µM

Structure (SMILES): CC(=O)N1c2ccccc2Sc2ccc(C3(O)CN(C)CCO3)cc21 (racemic)
- inhibition [6]: Dose-dependent effect
- IC50 (Squalene synthase): 25.3 µM
- IC50 [1]: > 400 µM
- inhibition in vivo at 56 µmol/kg (Rattus norvegicus [2]): 63%
- inhibition in vivo at 56 µmol/kg (Rattus norvegicus [3]): 48%
- inhibition in vivo at 56 µmol/kg (Rattus norvegicus [4]): 76%
- inhibition (Glycine max): inactive
- IC50 [5]: 36 µM

Structure (SMILES): CN1CC(O)(c2ccc(-c3ccccc3)cc2)Sc2ccccc21 (configuration not stated)
- IC50 [1]: 271 µM
- inhibition in vivo at 56 µmol/kg (Rattus norvegicus [2]): 58%
- inhibition [7]: 90%
- inhibition in vivo at 56 µmol/kg (Rattus norvegicus [3]): 26%
- inhibition in vivo at 56 µmol/kg (Rattus norvegicus [4]): 38%
- IC50 [5]: 83 µM

Structure (SMILES): COc1ccc2cc([C@H](C)C(=O)O)ccc2c1 [NAPROXEN]
- inhibition in vivo at 300 µmol/kg (Mus musculus): 51%
- inhibition [7]: 30%
- IC50 [9]: 24 µM

Structure (SMILES): CN1CC(O)(c2ccc3c(c2)Nc2ccccc2S3)Oc2ccccc21 (configuration not stated)
- inhibition [6]: Dose-dependent effect
- IC50 (Squalene synthase): 3.3 µM
- IC50 [1]: 337 µM
- Activity [8]: Active
- IC50 [5]: 1.6 µM

Structure (SMILES): COc1ccc2c(c1)c(CC(=O)O)c(C)n2C(=O)c1ccc(Cl)cc1 [INDOMETHACIN]
- inhibition in vivo at 300 µmol/kg (Mus musculus): 54%
- inhibition [7]: 100%

Structure (SMILES): CN1c2ccccc2Sc2ccc(C3(O)CN4CCCCC4CO3)cc21 (racemic)
- inhibition [6]: Dose-dependent effect
- IC50 (Squalene synthase): 2.3 µM
- IC50 [1]: > 400 µM
- inhibition in vivo at 56 µmol/kg (Rattus norvegicus [2]): 55%
- inhibition in vivo at 56 µmol/kg (Rattus norvegicus [3]): 26%
- inhibition in vivo at 56 µmol/kg (Rattus norvegicus [4]): 71%
- inhibition (Glycine max): inactive
- IC50 [5]: 68 µM

Structure (SMILES): CN1c2ccccc2Sc2ccc(C3(O)CN(C)C4CCCCC4O3)cc21 (racemic)
- inhibition [6]: Dose-dependent effect
- IC50 (Squalene synthase): 4.7 µM
- IC50 [1]: > 400 µM
- inhibition in vivo at 56 µmol/kg (Rattus norvegicus [2]): 26%
- inhibition in vivo at 56 µmol/kg (Rattus norvegicus [3]): 34%
- inhibition in vivo at 56 µmol/kg (Rattus norvegicus [4]): 27%
- inhibition (Glycine max): inactive
- IC50 [5]: 57 µM

Structure (SMILES): CC(C)(Sc1cc(C(C)(C)C)c(O)c(C(C)(C)C)c1)Sc1cc(C(C)(C)C)c(O)c(C(C)(C)C)c1 [PROBUCOL]
- IC50 [1]: 234 µM
- inhibition in vivo at 56 µmol/kg (Rattus norvegicus [2]): 18%
- inhibition in vivo at 56 µmol/kg (Rattus norvegicus [3]): 18%
- inhibition in vivo at 56 µmol/kg (Rattus norvegicus [4]): 11%
- IC50 [5]: > 1000 µM

Structure (SMILES): OC1(c2ccc3c(c2)Nc2ccccc2S3)CN2CCCCC2CO1 (racemic)
- TIME (Homo sapiens [10]): 1.5 h
- inhibition [6]: Dose-dependent effect
- IC50 (Squalene synthase): 2.7 µM
- TIME (Homo sapiens [11]): 3.38 h
- IC50 [1]: 184 µM
- Activity (Homo sapiens [12]): 100%
- inhibition in vivo at 56 µmol/kg (Rattus norvegicus [2]): 36%
- Activity (Homo sapiens [13]): 80%
- inhibition [7]: 55%
- inhibition in vivo at 56 µmol/kg (Rattus norvegicus [3]): 58%
- inhibition in vivo at 56 µmol/kg (Rattus norvegicus [4]): 63%
- inhibition (Homo sapiens [14]): 100%
- Activity [8]: Active
- inhibition (Glycine max): inactive
- inhibition (Homo sapiens [15]): 0%
- TIME (Homo sapiens [16]): 0.65 h
- Activity (Homo sapiens [17]): Dose-dependent effect
- IC50 [5]: 0.55 µM
- inhibition (Homo sapiens [18]): 20%
- Activity (Homo sapiens [19]): 35%
- TIME (Homo sapiens [20]): 2.53 h

Structure (SMILES): CN1CC(O)(c2ccc(-c3ccccc3)cc2)Oc2ccccc21 (configuration not stated)
- IC50 [1]: 119 µM
- inhibition in vivo at 56 µmol/kg (Rattus norvegicus [2]): 62%
- inhibition [7]: 36%
- inhibition in vivo at 56 µmol/kg (Rattus norvegicus [3]): 74%
- inhibition in vivo at 56 µmol/kg (Rattus norvegicus [4]): 73%
- IC50 [5]: 9 µM

Structure (SMILES): O=c1c(O)c(-c2ccc(O)c(O)c2)oc2cc(O)cc(O)c12 [QUERCETIN]
- IC50 [1]: 96 µM
- IC50 [5]: 20 µM
